Results as given in ChEMBL document CHEMBL1122598, “A cannabinoid derived prototypical analgesic” (1984).

Experiments:
Assay type in all cases: functional
Mus musculus [1] = test: Analgesic activity was determined by Mouse phenylbenzoquinone writhing test(PBQ) at a dose of 32 mg/kg subcutaneous administration.; conditions: sc
Mus musculus [2] = test: Analgesic activity was determined by Mouse phenylbenzoquinone writhing test(PBQ) at a dose of 56 mg/kg subcutaneous administration.; conditions: sc
Mus musculus [3] = test: Analgesic activity was determined by mouse phenylbenzoquinone writhing test(PBQ) at a dose 56 mg/kg subcutaneous administration.; conditions: sc
Mus musculus [4] = test: Analgesic activity was determined by Mouse phenylbenzoquinone writhing test(PBQ) at a dose of 100 mg/kg subcutaneous administration.; conditions: sc
Mus musculus [5] = test: Analgesic activity was determined by Mouse phenylbenzoquinone writhing test(PBQ) at a dose of 10 mg/kg subcutaneous administration.; conditions: sc
Rattus norvegicus [6] = organism: Rattus norvegicus; test: Analgesic activity was determined by rat flinch jump (FJ), 2 hour postdose.
Mus musculus [7] = organism: Mus musculus; test: Analgesic activity was determined by mouse tail flick (TF), 1 hour postdose.
Rattus norvegicus [8] = organism: Rattus norvegicus; test: Analgesic activity was determined by rat tail clamp assay(RTC), 2 hour postdose.
Mus musculus [9] = organism: Mus musculus; test: Analgesic activity was determined by mouse phenylbenzoquinone (PBQ) induced writhing, 1 hour postdose.
Mus musculus [10] = organism: Mus musculus; test: Analgesic activity was determined by mouse hot plate (HP), 1 hour postdose.

SMILES | inhibition in vivo at 32 mg/kg (Mus musculus [1]) | inhibition in vivo at 56 mg/kg (Mus musculus [2]) | inhibition in vivo at 56 mg/kg (Mus musculus [3]) | inhibition in vivo at 100 mg/kg (Mus musculus [4]) | inhibition in vivo at 10 mg/kg (Mus musculus [5]) | MPE50 (Rattus norvegicus [6]) | MPE50 (Mus musculus [7]) | MPE50 (Rattus norvegicus [8]) | MPE50 (Mus musculus [9]) | MPE50 (Mus musculus [10])
CCCCCCC(C)(C)c1ccc(C(C)CC(C)O)c(O)c1 (stereo unspecified) | 52% | 50% | 55% | 53% | 27% | – | – | – | – | –
CCCCCCC(C)(C)c1ccc([C@H]2CCC[C@H](O)C2)c(O)c1 | – | – | – | – | – | 17.8 mg/kg | 55.7 mg/kg | 12.3 mg/kg | 3.8 mg/kg | >56 mg/kg
CCCCCCC(C)(C)c1ccc([C@H]2CCCC(=O)C2)c(O)c1 | – | – | – | – | – | 11.5 mg/kg | 15.3 mg/kg | 26.1 mg/kg | 4.5 mg/kg | >32 mg/kg
CCCCCCC(C)(C)c1ccc([C@H]2CCC[C@@H](O)C2)c(O)c1 | – | – | – | – | – | 4.9 mg/kg | 4.4 mg/kg | 4.7 mg/kg | 1 mg/kg | 8.1 mg/kg
CCCCCCC(C)(C)c1ccc(C(C)CC(C)=O)c(O)c1 (stereo unspecified) | – | – | 0% | – | – | – | – | – | – | –
CCCCCc1cc(O)c2c(c1)OC(C)(C)[C@@H]1CC[C@@H](O)C[C@@H]21 | – | – | – | – | – | 36.4 mg/kg | 9.1 mg/kg | 7 mg/kg | 0.63 mg/kg | 34.4 mg/kg
CCCCCc1cc(O)c2c(c1)OC(C)(C)[C@@H]1CCC(C)=C[C@@H]21 [DRONABINOL] | – | – | – | – | – | 83.1 mg/kg | 55 mg/kg | 29.1 mg/kg | 5.9 mg/kg | >178 mg/kg
CN1CC[C@]23c4c5ccc(O)c4O[C@H]2[C@@H](O)C=C[C@H]3[C@H]1C5 [MORPHINE] | – | – | – | – | – | 10.3 mg/kg | 5.7 mg/kg | 4.8 mg/kg | 1.8 mg/kg | 4.2 mg/kg
